Laboratory results as given in US11104663B2 (priority 2017, dated 2021).
Where two headings read alike, the source gives them in different places.

Assays:
[1] = type: physicochemical; conditions: for d50: median particle size; for d10 / d90: particle size; for d10: 10th percentile; for d90: 90th percentile
Procedure: The suspensions were sonicated in a bath or with a sonic probe prior to analysis to deagglomerate and form a homogeneous suspension. Particle size was analyzed by both light obscuration and laser diffraction methods.

[2] = Specific surface area analysis (BET); conditions: for SSA: BET method
[3] = rat, i.v. 5 mg/kg
in vivo = conditions: male, Sprague Dawley (CD), rat, lung
[4] = Example 1 processed vs raw material

## Cl.O=C(O)c1cn(C2CC2)c2cc(N3CCNCC3)c(F)cc2c1=O [Example 1 processed, 1-cyclopropyl-6-fluoro-4-oxo-7-(piperazin-1-yl)-1,4-dihydroquinoline-3-carboxylic acid hydrochloride salt]
[1]; [4]
  % Change of d10: −90%
  % Change of d50: −94%
  % Change of d90: −94%
[1]; hydrochloride salt
  d50: 1.37 μm
  d10: 0.61 μm
  d90: 3.64 μm
[2]; hydrochloride salt
  SSA: 19.42 m^2/g
[2]; [4]
  % Change of SSA: +153%

## O=C(O)c1cn(C2CC2)c2cc(N3CCNCC3)c(F)cc2c1=O [Example 2 processed Batch 1, 1-cyclopropyl-6-fluoro-4-oxo-7-(piperazin-1-yl)-1,4-dihydroquinoline-3-carboxylic acid]
[1]
  d50: 4.63 μm
  d10: 1.62 μm
  d90: 9.32 μm
[2]
  SSA: 7.68 m^2/g

## O=C(O)c1cn(C2CC2)c2cc(N3CCNCC3)c(F)cc2c1=O [ciprofloxacin, reference compound]
[3]; 12 hours
  Lung concentration: BQL*
[3]; 24 hours
  Lung concentration: BQL
In vivo; iv, 5 mg/kg
  concentration at 0.5 h: 843 ng/g
  concentration at 6 h: 113 ng/g

## O=C(O)c1cn(C2CC2)c2cc(N3CCNCC3)c(F)cc2c1=O [Example 2 processed Batch 2, 1-cyclopropyl-6-fluoro-4-oxo-7-(piperazin-1-yl)-1,4-dihydroquinoline-3-carboxylic acid]
[1]
  d50: 5.57 μm
  d10: 1.79 μm
  d90: 13.3 μm
[2]
  SSA: 14.3 m^2/g

## O=C(O)c1cn(C2CC2)c2cc(N3CCNCC3)c(F)cc2c1=O [Example 2 processed Batch 3, 1-cyclopropyl-6-fluoro-4-oxo-7-(piperazin-1-yl)-1,4-dihydroquinoline-3-carboxylic acid]
[1]
  d50: 3.26 μm
  d10: 1.19 μm
  d90: 6.65 μm
[2]
  SSA: 12.9 m^2/g

## Cl.O=C(O)c1cn(C2CC2)c2cc(N3CCNCC3)c(F)cc2c1=O [Ciprofloxacin hydrochloride Raw material, 1-cyclopropyl-6-fluoro-4-oxo-7-(piperazin-1-yl)-1,4-dihydroquinoline-3-carboxylic acid hydrochloride salt, reference compound]
[1]; hydrochloride salt
  d50: 22.7 μm
  d10: 6.05 μm
  d90: 56.0 μm
[2]; hydrochloride salt
  SSA: 7.68 m^2/g

## O=C(O)c1cn(C2CC2)c2cc(N3CCNCC3)c(F)cc2c1=O [Ciprofloxacin Raw material, 1-cyclopropyl-6-fluoro-4-oxo-7-(piperazin-1-yl)-1,4-dihydroquinoline-3-carboxylic acid, reference compound]
[1]
  d50: 14.8 μm
  d10: 1.44 μm
  d90: 244 μm
[2]
  SSA: 11.8 m^2/g

## O=C(O)c1cn(C2CC2)c2cc(N3CCNCC3)c(F)cc2c1=O [Ex. 2 ciprofloxacin, 1-cyclopropyl-6-fluoro-4-oxo-7-(piperazin-1-yl)-1,4-dihydroquinoline-3-carboxylic acid]
In vivo; inhaled, 3 mg/kg
  concentration at 0.5 h: 153000 ng/g
  concentration at 6 h: 48400 ng/g
  concentration at 12 h: 12800 ng/g
  concentration at 24 h: 607 ng/g
